Laboratory results: patent US10829484B2, “Compounds and methods for kinase modulation, and indications therefor” (Plexxikon Inc., priority 2015, dated 2020)
Changes are numbered by the printed parent chain. Where two headings read alike, the source gives them in different places.

Columns and labels:
[1] = target: T1, BaF3-FLT3-ITD (Homo sapiens, UniProt P36888, INS600HVDFREYEYD, cells depend on it); experiment: CTB viability assay CS0046, BaF3-FLT3-ITD; type: cell-based, murine; settings: CellTiter Blue viability, 72 hours
T1 sequence (P36888 with tags, fused parts or gaps INS600HVDFREYEYD): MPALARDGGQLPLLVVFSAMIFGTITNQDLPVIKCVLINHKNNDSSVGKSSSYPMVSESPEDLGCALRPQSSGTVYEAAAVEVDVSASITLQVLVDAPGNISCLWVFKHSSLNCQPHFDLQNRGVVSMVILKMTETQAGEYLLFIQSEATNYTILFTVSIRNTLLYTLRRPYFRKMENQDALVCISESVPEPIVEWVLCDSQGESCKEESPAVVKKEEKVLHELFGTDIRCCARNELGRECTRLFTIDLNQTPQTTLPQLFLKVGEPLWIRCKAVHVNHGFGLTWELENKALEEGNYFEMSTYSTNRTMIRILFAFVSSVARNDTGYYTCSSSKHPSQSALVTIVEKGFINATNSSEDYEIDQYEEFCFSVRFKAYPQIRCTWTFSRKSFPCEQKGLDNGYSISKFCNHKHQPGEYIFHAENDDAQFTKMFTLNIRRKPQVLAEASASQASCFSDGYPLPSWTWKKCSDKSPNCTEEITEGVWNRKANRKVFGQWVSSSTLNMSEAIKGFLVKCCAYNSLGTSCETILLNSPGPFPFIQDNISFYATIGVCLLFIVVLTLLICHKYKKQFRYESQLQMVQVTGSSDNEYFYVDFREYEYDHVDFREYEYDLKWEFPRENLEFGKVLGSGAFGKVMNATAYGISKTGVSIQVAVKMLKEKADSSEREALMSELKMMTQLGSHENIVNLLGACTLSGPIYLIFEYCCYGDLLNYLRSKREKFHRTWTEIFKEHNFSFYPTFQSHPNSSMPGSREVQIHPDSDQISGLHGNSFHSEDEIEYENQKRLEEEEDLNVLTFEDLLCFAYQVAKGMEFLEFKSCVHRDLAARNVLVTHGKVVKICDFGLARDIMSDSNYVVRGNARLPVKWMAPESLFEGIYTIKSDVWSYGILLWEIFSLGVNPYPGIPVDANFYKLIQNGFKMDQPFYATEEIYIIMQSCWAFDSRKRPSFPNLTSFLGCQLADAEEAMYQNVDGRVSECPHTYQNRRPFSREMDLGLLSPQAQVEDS
Source text: (§1) Gene constructs containing the human FLT3 sequences FLT3-ITD, FLT3-ITD-F691L, FLT3-ITD-D835V and FLT3-D835V were synthesized by reverse translation of the human protein sequences, with codons optimized for mammalian expression. Sequence of the internal tandem duplication (ITD) was based on the MV4-11 ITD sequence. Synthetic DNA constructs were cloned into the pMSCV puro retroviral vector (Clontech) and transfected into the EcoPack2-293 packaging cell line (Clontech) to generate retroviruses that contain the different FLT3 constructs. Viruses were transduced into the IL-3-dependent, murine […] cell line, Ba/F3, and selected for puromycin resistance and IL-3 independence. All cell lines were cloned by limiting dilution and clones were used for all subsequent cell assays. Overexpression of the FLT3 mutants in the Ba/F3 cells results in constitutive phosphorylation of the exogenous FLT3 protein, which is required for IL-3 independence.
(§2) Cell lines were serum starved overnight in media containing 0.5% FBS, plated at 15,000 cells/well in 96-well white-walled tissue culture plates, and 3-fold serial dilutions of test compounds of Formula I were added for 72 hours at 37° C. CellTiter Blue (CTB, Promega) was added and incubated for an additional 3 hours at 37° C. Fluorescence was read at 560 nm excitation, 590 nm emission. Wells with CTB+media only were used for background subtraction, and the fluorescence of compound-treated cells was normalized to the fluorescence of DMSO-treated cells. IC50s were determined using Igor Pro software. All compounds are assayed in duplicate cell plates.

[2] = target: T2, BaF3-FLT3-ITD-F691L (Homo sapiens, UniProt P36888, INS600HVDFREYEYD/F691L, cells depend on it); experiment: CTB viability assay CS0047, BaF3-FLT3-ITD-F691L; type: cell-based, murine; settings: CellTiter Blue viability, 72 hours
T2 sequence (P36888 with tags, fused parts or gaps INS600HVDFREYEYD/F691L): T1 sequence (P36888 with tags, fused parts or gaps INS600HVDFREYEYD) with F701L
Source text: as §1, §2

[3] = BaF3-FLT3-ITD cells, read-out: Cell Assay: CS0046:BaF3-FLT3-ITD CTB:IC50
[4] = BaF3-FLT3-ITD-F691L cells, read-out: Cell Assay: CS0047:BaF3-FLT3-ITD-F691L CTB:IC50
[5] = Table 4, compounds from WO 2011/022473, read-out: Cell Assay: CS0046: BaF3-FLT3-ITD CTB: IC50
[6] = Table 4, compounds from WO 2011/022473, read-out: Cell Assay: CS0047: BaF3-FLT3-ITD-F691L CTB: IC50
[7] = Table 3, read-out: Cell Assay: CS0046: BaF3-FLT3-ITD CTB: IC50
[8] = Table 3, read-out: Cell Assay: CS0047: BaF3-FLT3-ITD-F691L CTB: IC50

Row | SMILES | GI50 [1, 5] [nM] | GI50 [2, 6] [nM] | further results
1 | Cc1nn(C)c(C)c1Nc1ncc(-c2ccc(CC(=O)Nc3cc(C4(C(F)(F)F)CC4)on3)c(F)c2)cn1 [P-029, 2-[2-fluoro-4-[2-[(l,3,5-trimethylpyrazol-4-yl)amino]pyrimidin-5-yl]phenyl]-N-[5-[1-(trifluoromethyl)cyclopropyl]isoxazol-3-yl]acetamide] | – | – | GI50 [1, 3]: 10 to 50 nM; GI50 [2, 4]: 10 to 50 nM
2 | CC(C)(C)c1cc(NC(=O)Nc2ccc(-c3cnc(NC4CCOCC4)nc3)cn2)no1 [reference compound] | 6.6 | 110 | –
3 | CCNc1ccc(-c2ccc(CC(=O)Nc3cc(C(C)(C)C)on3)cc2)cn1 [reference compound] | 0.252 | 45.4 | –
4 | O=C(Cc1ccc(-c2cnc(Nc3ccccc3)nc2)cc1F)Nc1cc(C2(C(F)(F)F)CC2)on1 | – | – | GI50 [1, 7]: 0.152 nM; GI50 [2, 8]: 0.728 nM
5 | CC(C)(c1cc(NC(=O)Cc2ccc(-c3ccc(NCCN4CCOCC4)nc3)cc2)no1)C(F)(F)F [reference compound] | 0.597 | 73.9 | –
6 | CC(C)(C)c1cc(NC(=O)Nc2ccc(-c3cnc(NC4CC4)nc3)cn2)no1 [reference compound] | 5.91 | 77.8 | –
7 | O=C(O)Cn1cc(Nc2ncc(-c3ccc(CC(=O)Nc4cc(C5(C(F)(F)F)CC5)on4)c(F)c3)cn2)cn1 [P-078, 2-[4-[[5-[3-fluoro-4-[2-oxo-2-[[5-[1-(trifluoromethyl)cyclopropyl]isoxazol-3-yl]amino]ethyl]phenyl]pyrimidin-2-yl]amino]pyrazol-1-yl]acetic acid] | – | – | GI50 [1, 3]: 10 to 50 nM; GI50 [2, 4]: 10 to 50 nM
8 | CNc1ccc(-c2ccc(CC(=O)Nc3cc(C(C)(C)C)on3)cc2)cn1 [reference compound] | 0.146 | 43.2 | –
9 | Cn1cc(Nc2ncc(-c3ccc(CC(=O)Nc4cc(C5(C(F)(F)F)CC5)on4)c(F)c3)cn2)cn1 | – | – | GI50 [1, 7]: 0.0861 nM; GI50 [2, 8]: 0.189 nM
